US20210127675A1, “METHOD FOR C[…]-TYPE MULTIDRUG RESISTANT PLANT DISEASES” (priority 2017, published 2021)

Columns and labels:
[1] = tested on: grapes gray mold fungus (Botrytis cinerea); experiment: Control test against efflux type multidrug resistant grapes gray mold fungus (growth in PDB, absorbance at 600 nm); assay type: cell-based; conditions: for EC50 value ratio 1: EC50 against resistant strain 1 / EC50 against wild-type strain; for EC50 value ratio 2: EC50 against resistant strain 2 / EC50 against wild-type strain; for EC50 value ratio 3: EC50 against resistant strain 3 / EC50 against wild-type strain; for EC50 value, Efflux type multidrug resistant fungus strain 1: strain 1: ABC transporter-overexpressing (Bc-56, NITE BP-02676); for EC50 value, Efflux type multidrug resistant fungus strain 1 / EC50 value, Efflux type multidrug resistant fungus strain 2 / EC50 value, Efflux type multidrug resistant fungus strain 3 / EC50 value, Wild-type fungus strain: 18° C., 2 days; for EC50 value, Efflux type multidrug resistant fungus strain 2: strain 2: MFS transporter-overexpressing (Bc-107, NITE BP-02678); for EC50 value, Efflux type multidrug resistant fungus strain 3: strain 3: ABC transporter and MFS transporter-overexpressing (Bc-103, NITE BP-02677)
Experimental: (§1) Efficacy=100×(X−Y)/X “Equation 1” • X: Degree of growth of fungus in non-treated group • Y: Degree of growth of fungus in treated group
(§2) EC50 value ratio=EC50 value against efflux type multidrug resistant fungus strain/EC50 value against wild-type fungus strain “Equation 2”
Control Test Against Efflux Type Multidrug Resistant Grapes Gray Mold Fungus (Botrytis cinerea)
Each of the present compound (1), fludioxonil and tolnaftrate was diluted with dimethyl sulfoxide to a prescribed concentration thereof, respectively. Each of the chemical solutions comprising the respective testing compound was dispensed into a titer plate (with 96 wells) in the amount of 1 μL. Thereto was then dispensed 150 μL of a potato dextrose broth (PDB culture media) to which each conidia of grapes gray mold fungi, that is, efflux type multidrug resistant fungus strains (specifically, efflux type multidrug resistant fungus strain 1: ABC transporter-overexpressing fungus strain (fungus strain name: NITE accession number (NITE BP-02676), in-house management codes (Bc-56)); efflux type multidrug resistant fungus strain 2: MFS transporter-overexpressing fungus strain (fungus strain name: NITE accession number (NITE BP-02678), in-house management codes (Bc-107)); and efflux type multidrug resistant fungus strain 3: ABC transporter and MFS transporter-overexpressing fungus strain (fungus strain name: NITE accession number (NITE BP-02677), in-house management codes (Bc-103))) or wild-type fungus strain, respectively, was inoculated in advance. The plate was cultured at 18° C. for 2 days, thereby allowing each grapes gray mold fungus to undergo proliferation, and the absorbance at 600 nm of each well of the titer plate was then measured to determine a degree of growth of each of the grapes gray mold fungi (treated group). On the other hand, each of the groups where the wild-type fungus strain or the efflux type multidrug resistant grapes gray mold fungus strains was grown except that the chemical solution was replaced with dimethyl sulfoxide were made non-treated group, respectively, and then the degree of the growth thereof was examined (non-treated group).
The efficacy was calculated from the degree of the growth by the below-mentioned “Equation 1”, and then each EC50 value of the testing compound, respectively against the efflux type multidrug resistant fungus strains and the wild-type fungus strain was calculated. Also, an EC50 value ratio was calculated by the above-mentioned “Equation 2”.

[2] = tested on: wheat Septoria leaf blotch fungus (Zymoseptoria tritici); experiment: Control test against efflux type multidrug resistant wheat Septoria leaf blotch fungus (growth in PDB, absorbance at 600 nm); assay type: cell-based; conditions: for EC50 value ratio: EC50 against efflux type multidrug resistant strain / EC50 against wild-type strain; for EC50 value, Efflux type multidrug resistant fungus strain: efflux type multidrug resistant fungus strain St 106-6; for EC50 value, Efflux type multidrug resistant fungus strain / EC50 value, Wild-type fungus strain: 18° C., 4 days
Experimental: Control test against Efflux type multidrug resistant wheat Septoria leaf blotch fungus (Zymoseptoria tritici)
Each of the present compound (1) and tolnaftrate was diluted with dimethyl sulfoxide to a prescribed concentration thereof, respectively. Each of the chemical solutions comprising the respective testing compound was dispensed into a titer plate (with 96 wells) in the amount of 1 μL. Thereto was then dispensed 150 μL of a potato dextrose broth (PDB culture media) to which each conidia of wheat Septoria leaf blotch fungus (efflux type multidrug resistant fungus strains) (fungus strain name: St 106-6 as in-house management codes) or wild-type fungus strain, respectively, was inoculated in advance. The plate was cultured at 18° C. for 4 days, thereby allowing each wheat Septoria leaf blotch fungus to undergo proliferation, and the absorbance at 600 nm of each well of the titer plate was then measured to determine a degree of growth of the wheat Septoria leaf blotch fungus (treated group). On the other hand, each of the groups where the wild-type fungus strain or the efflux type multidrug resistant wheat Septoria leaf blotch fungus strain was grown except that the chemical solution was replaced with dimethyl sulfoxide were made non-treated group, respectively, and then the degree of growth thereof was examined (non-treated group).
The efficacy was calculated from the degree of the growth by the below-mentioned “Equation 1”, and then each […] value of the testing compound, respectively against the efflux type multidrug resistant fungus strains and the wild-type fungus strain was calculated. Next, as shown in the below-mentioned “Equation 2”, an EC50 value ratio was calculated by dividing an EC50 value against the efflux type multidrug resistant fungus strains by an EC50 value against the wild-type fungus strain.
as §1, §2

SMILES | EC50 value ratio 1 [1] | EC50 value ratio 2 [1] | EC50 value ratio 3 [1] | EC50 value, Efflux type multidrug resistant fungus strain 1 [1] [ppm] | EC50 value, Efflux type multidrug resistant fungus strain 2 [1] [ppm] | EC50 value, Efflux type multidrug resistant fungus strain 3 [1] [ppm] | EC50 value, Wild-type fungus strain [1] [ppm] | EC50 value ratio [2] | EC50 value, Efflux type multidrug resistant fungus strain [2] [ppm] | EC50 value, Wild-type fungus strain [2] [ppm] | EC50 value ratio ([2]; listed as tolnaftate) | EC50 value ratio 1 ([1]; listed as tolnaftate) | EC50 value ratio 2 ([1]; listed as tolnaftate) | EC50 value ratio 3 ([1]; listed as tolnaftate)
N#Cc1c[nH]cc1-c1cccc2c1OC(F)(F)O2 [Fludioxonil] | 23 | 14 | 43 | 0.19 | 0.12 | 0.36 | 0.0085 | – | – | – | – | – | – | –
Cc1nn(C)c(Nc2c(F)cccc2Cl)c1-c1ccc(F)cc1Br [Present compound (1)] | 1.7 | 1.6 | 1.1 | 0.11 | 0.11 | 0.072 | 0.067 | 1.1 | 0.052 | 0.048 | – | – | – | –
Cc1cccc(N(C)C(=S)Oc2ccc3ccccc3c2)c1 [Tolnaftate] | >4.5 | >4.5 | >4.5 | >10 | >10 | >10 | 2.2 | >19 | >10 | 0.51 | 19 | more than 4.5 | more than 4.5 | more than 4.5
